Experiments:
[1] = Antioxidant activity assessed as DPPH scavenging activity after 30 min by spectrophotometry; format: functional
[2] = tested on: RAW264.7; test: Anti-inflammatory activity in Mus musculus (mouse) RAW264.7 cells assessed as inhibition of IFN-gamma/LPS-induced nitric oxide production after 17 to 20 hr by Griess assay; format: functional, cell-based
[3] = tested on: RAW264.7; test: Cytotoxicity against Mus musculus (mouse) RAW264.7 cells at >50 uM by MTT assay; format: cell-based
[4] = tested on: RAW264.7; test: Cytotoxicity against Mus musculus (mouse) RAW264.7 cells at IC50 for NO production by MTT assay; format: cell-based
[5] = tested on: RAW264.7; test: Cytotoxicity against Mus musculus (mouse) RAW264.7 cells at 25 uM by MTT assay; format: cell-based; settings: raw264.7, 25 µM

Compound | IC50 [1] | IC50 [2] | Activity [3] | Activity [4] | Activity [5]
O=C1/C(=C/c2ccc(O)c(O)c2)CCC/C1=C\c1ccc(O)c(O)c1 | 13.3 µM | 9.43 µM |  |  | 
COc1cc(/C=C2\CC/C(=C\c3ccc(OC(C)=O)c(OC)c3)C2=O)ccc1OC(C)=O | ≥ 100 µM | ≥ 50 µM |  |  | 
CC(=O)Oc1ccc(/C=C2\CC/C(=C\c3ccc(OC(C)=O)c(OC(C)=O)c3)C2=O)cc1OC(C)=O | ≥ 100 µM | ≥ 50 µM |  |  | 
COc1cc(/C=C2\CCC/C(=C\c3ccc(OC(C)=O)c(OC)c3)C2=O)ccc1OC(C)=O | ≥ 100 µM | 13.3 µM |  |  | 
CCC(=O)Oc1ccc(/C=C2\CCC/C(=C\c3ccc(OC(=O)CC)c(OC)c3)C2=O)cc1OC | ≥ 100 µM | 8.02 µM |  |  | 
CC(=O)Oc1ccc(/C=C2\CCC/C(=C\c3ccc(OC(C)=O)c(OC(C)=O)c3)C2=O)cc1OC(C)=O | ≥ 100 µM | 6.84 µM |  |  | 
COc1cc(/C=C2\CCCC3C2=NNC3c2ccc(O)c(OC)c2)ccc1O (stereo not drawn) |  | 12.2 µM | Toxic | Non-toxic | 
Oc1ccc(/C=C2\CCCC3C2=NNC3c2ccc(O)cc2)cc1 (stereo not drawn) |  | 26.9 µM |  |  | 
COc1ccc(/C=C2\CCCC3C2=NNC3c2ccc(OC)c(OC)c2)cc1OC (stereo not drawn) |  | 38.7 µM |  |  | 
O=[N+]([O-])c1ccc(/C=C2\CCCC3C2=NNC3c2ccc([N+](=O)[O-])cc2)cc1 (stereo not drawn) |  | ≥ 50 µM |  |  | 
Fc1ccc(/C=C2\CCCC3C2=NNC3c2ccc(F)cc2)cc1 (stereo not drawn) |  | ≥ 50 µM |  |  | 
COc1cc(/C=C2\CCCC3C2=NN(C(C)=O)C3c2ccc(OC(C)=O)c(OC)c2)ccc1OC(C)=O (stereo not drawn) |  | ≥ 50 µM |  |  | 
COc1ccc(/C=C2\CCCC3C2=NN(C(C)=O)C3c2ccc(OC)c(OC)c2)cc1OC (stereo not drawn) |  | ≥ 50 µM |  |  | 
CC(=O)N1N=C2/C(=C/c3ccc([N+](=O)[O-])cc3)CCCC2C1c1ccc([N+](=O)[O-])cc1 (stereo not drawn) |  | ≥ 50 µM |  |  | 
CC(=O)N1N=C2/C(=C/c3ccc(F)cc3)CCCC2C1c1ccc(F)cc1 (stereo not drawn) |  | ≥ 50 µM |  |  | 
COc1cc(/C=C2\CCCC3C2=NN(C(=O)c2ccccc2)C3c2ccc(O)c(OC)c2)ccc1O (stereo not drawn) |  | 47.1 µM |  |  | 
COc1ccc(/C=C2\CCCC3C2=NN(C(=O)c2ccccc2)C3c2ccc(OC)c(OC)c2)cc1OC (stereo not drawn) |  | 25.1 µM |  |  | 
O=C(c1ccccc1)N1N=C2/C(=C/c3ccc([N+](=O)[O-])cc3)CCCC2C1c1ccc([N+](=O)[O-])cc1 (stereo not drawn) |  | ≥ 50 µM |  |  | 

Compound | IC50 [1] | IC50 [2] | Activity [3] | Activity [4] | Activity [5]
O=C(c1ccccc1)N1N=C2/C(=C/c3ccc(F)cc3)CCCC2C1c1ccc(F)cc1 (stereo not drawn) |  | ≥ 50 µM |  |  | 
O=C1/C(=C/c2cccc(O)c2)CC/C1=C\c1cccc(O)c1 | ≥ 100 µM | ≥ 50 µM |  |  | 
O=C1/C(=C/c2ccc(O)cc2O)CC/C1=C\c1ccc(O)cc1O | 50.6 µM | ≥ 50 µM |  |  | 
O=C1/C(=C/c2cccc(O)c2O)CC/C1=C\c1cccc(O)c1O | 20.7 µM | 7.94 µM |  |  | 
O=C1/C(=C/c2cccc(O)c2)CCC/C1=C\c1cccc(O)c1 | ≥ 100 µM | 6.09 µM | Toxic | Non-toxic | Toxic
COc1cc(/C=C2\CC/C(=C\c3ccc(O)c(OC)c3)C2=O)ccc1O | 75 µM | 13.9 µM | Toxic | Non-toxic | 
O=C1/C(=C/c2ccc(O)c(O)c2)CC/C1=C\c1ccc(O)c(O)c1 | 14.8 µM | 20.5 µM |  |  | 
O=C1/C(=C/c2ccc(O)cc2)CC/C1=C\c1ccc(O)cc1 | ≥ 100 µM | ≥ 50 µM |  |  | 
COc1ccc(/C=C2\CCC/C(=C\c3ccc(OC)c(OC)c3)C2=O)cc1OC | ≥ 100 µM | 19.8 µM |  |  | 
O=C1/C(=C/c2ccc([N+](=O)[O-])cc2)CCC/C1=C\c1ccc([N+](=O)[O-])cc1 | ≥ 100 µM | 29.4 µM |  |  | 
O=C1/C(=C/c2ccc(F)cc2)CC/C1=C\c1ccc(F)cc1 | ≥ 100 µM | ≥ 50 µM |  |  | 
O=C1/C(=C/c2ccc(F)cc2)CCC/C1=C\c1ccc(F)cc1 | ≥ 100 µM | ≥ 50 µM |  |  | 
O=C1/C(=C/c2ccc(O)cc2)CCC/C1=C\c1ccc(O)cc1 | ≥ 100 µM | 41.6 µM |  |  | 
COc1cc(/C=C/C(=O)CC(=O)/C=C/c2ccc(O)c(OC)c2)ccc1O [CURCUMIN] |  | 21.6 µM |  |  | 
COc1cc(/C=C2\CCC/C(=C\c3ccc(O)c(OC)c3)C2=O)ccc1O [CYCLOVALONE] | 51.9 µM | 6.68 µM | Toxic | Non-toxic | 
COC(=O)[C@@H](N)CCCNC(=N)N[N+](=O)[O-] [L-NAME] |  | 26.2 µM |  |  | 
O=c1c(O)c(-c2ccc(O)c(O)c2)oc2cc(O)cc(O)c12 [QUERCETIN] | 21.5 µM |  |  |  | 
